In US8324191B2, “Combined calcium, magnesium and vitamin D supplements” (Biolink Life Sciences, Inc, priority 2008, dated 2012):
Where two headings read alike, the source gives them in different places.

How the values were obtained:
[1] = conventional magnesium salts; Firoz and Graber 2001; cited from earlier work
[2] = 250-750 mg magnesium daily as magnesium hydroxide, 2 years; cited from earlier work
[3] = cited from earlier work
[4] = doses of 1 g calcium citrate daily; cited from earlier work
[5] = 1 gram calcium/day as the citrate, 1,471 healthy older women; cited from earlier work
[6] = Availability of magnesium and lipoate ions from aqueous suspensions of the salt; type: physicochemical; settings: aqueous solutions, pH about 4 to about 8
Source text: Thus, its bioavailability is unexpectedly high, as compared to conventional, water-insoluble magnesium salts. Further, R-(+)-alpha-lipoic acid is a widely distributed physiological antioxidant that combines free radical scavenging properties with an ability, after intracellular reduction to dihydrolipoic acid, to regenerate the levels of other nonenzymatic and enzymatic antioxidants, including glutathione (GSH), ascorbate, α-tocopherol, catalase and GSH peroxidase. The physiological form of R-(+)-α-lipoate, the R-(+)-enantiomer, is present in all eukaryotic and prokaryotic cells.

[7] = cited from earlier work; remark: listed apart in the source

[Cl-].[Cl-].[Mg+2] [Magnesium chloride]
Bioavailability (as fractional absorption of administered dose) [1]: 12%

[Mg+2].[OH-].[OH-] [Magnesium hydroxide]
bone density [2]: significant increase in bone density | fractures [2]: prevented fractures | Bioavailability (as fractional absorption of administered dose) [1]: 4%

CC(O)C(=O)[O-].CC(O)C(=O)[O-].[Mg+2] (stereo not drawn) [Magnesium lactate]
Bioavailability (as fractional absorption of administered dose) [1]: 12%

[O]=[Mg] [Magnesium oxide]
Bioavailability (as fractional absorption of administered dose) [1]: 4%

O=C(O)CCCCC1CCSS1 (stereo not drawn) [R-(+)-alpha-lipoic acid]
storage life ([3]; closed and sealed amber container at refrigerated temperatures): within a few months

O=C(O)CCCCC1CCSS1 (stereo not drawn) [RS-Alpha-lipoic acid, RS-alpha-lipoic acid]
storage life ([3]; closed and sealed amber container at room temperature): a year or more

O=C([O-])CC(O)(CC(=O)[O-])C(=O)[O-].O=C([O-])CC(O)(CC(=O)[O-])C(=O)[O-].[Ca+2].[Ca+2].[Ca+2] [calcium citrate]
risk for myocardial infarction, stroke and death [4]: increase risk

[Ca] [calcium]
effect on bone density [5]: beneficial effect on bone density

Magnesium R-(+)-alpha-lipoate
availability of magnesium and R-(+)-alpha-lipoate ions from suspensions [6]: available

Magnesium citrate
Bioavailability (as fractional absorption of administered dose) [1]: 12%

vitamin D
fracture benefit ([7]; 400 IU per day): failed to demonstrate any fracture benefit | reduction of risk of any non-vertebral fracture ([7]; 700 to 800 IU per day): 23% | reduction of risk of hip fracture ([7]; 700 to 800 IU per day): 26%
